Entries after “also recorded” stand apart in the source; their conditions may differ. Read-outs that look alike come from different tables or passages of the source.
Assays:
[1] = healthy human subjects, very high doses; cited from earlier work
[2] = system: human breast cancer cell line MCF-7; assay: Cell viability assay, Example 4; assay type: cell-based; conditions: TAK-875
[3] = system: human medullary thyroid carcinoma cell line (TT); assay: Cell viability assay (Cell Counting Kit-8), Example 5; assay type: cell-based; conditions: DHA 0-250 μM, TAK-875 0-0.4 μM, 3 and 6 days
Method: (§1) Neuroblastoma cell lines used to perform the present studies include: ShSY5Y, IMR-32, SK-NSH, SK-NAS. Melanoma cell lines used include: A2058, A375, and SK-Mel3. Medullary thyroid carcinoma cell line used includes: TT. Malignant peripheral nerve sheath tumor used includes: sNF94.3. Control cell lines used included: human foreskin fibroblast line (Hs27), breast cancer cell lines (MCF-7 and […]), human umbilical vein endothelial cells (HUVEC) and human melanocytes (HMn). ShSY5Y was cultured in MEM/F12 containing 10% heat inactivated fetal bovine serum (FBS) (Invitrogen/GIBCO, Grand Island, N.Y.). IMR-32 was cultured in MEM containing 10% FBS (Invitrogen/GIBCO). SK-NSH was cultured in RPMI-1640 containing 10% FBS (Invitrogen/GIBCO). SK-Mel 3 was cultured in McCoy's 5a containing 10% FBS (Invitrogen/GIBCO). TT was cultured in F-12K containing 10% FBS (ATCC, Manassas, Va.). […] was cultured in Leibovitz's L-15 containing 10% FBS (ATCC). HUVEC was cultured with EGM-2 Bullet Kit (Lonza, Hopkinton, Mass.). HMn were cultured in MGM-4 (Lonza). All other cell lines were cultured in DMEM with 10% FBS (Invitrogen/GIBCO). Cells were incubated at 37° C. in a humidified atmosphere with 5% CO2. Cells were plated in 96-well plates to approximately 50% confluence prior to initial treatment.
(§2) Cells treated with the GPR40 agonist DHA had growth media that was replaced with each respective media containing 1% FBS and 0.1% FA-free BSA with varying concentrations of DHA (Cayman Chemical, Ann Arbor, Mich.) ranging from 0-250 μM solubilized in ethanol (Pharmco-Aaper, Brookfield, Conn.). Cells treated with the GPR40 agonist TAK-875 had growth media that was replaced with each respective media containing 10% FBS with varying concentration of TAK-875 (Selleck Chemicals, Houston, Tex.) ranging from 0-0.4 μM solubilized in dimethyl sulfoxide (Sigma-Aldrich, St. Louis, Mo.). Following 72 hours (TAK-875) or 144 hours (DHA) of treatment, viable cells were quantified using an absorbance-based cell viability assay (Cell Counting Kit-8, Dojindo, Kumamoto, Japan).

[4] = system: human melanocytes (HMn); assay: as above; assay type: cell-based; conditions: HMn primary melanocytes; DHA 0-250 μM, TAK-875 0-0.4 μM; 3 and 6 days
Method: as §1, §2

[5] = system: malignant peripheral nerve sheath tumor (MPNST) (sNF94.3) cell line; assay: as above; assay type: cell-based; conditions: DHA 0-250 μM, TAK-875 0-0.4 μM, 3 and 6 days
Method: as §1, §2

[6] = system: control human foreskin fibroblast (Hs27) cell line; assay: as above; assay type: cell-based; conditions: DHA 0-250 μM, TAK-875 0-0.4 μM, 3 and 6 days
Method: as §1, §2

[7] = system: human umbilical vein endothelial cells (HUVEC); assay: as above; assay type: cell-based; conditions: DHA 0-250 μM, TAK-875 0-0.4 μM, 3 and 6 days
Method: as §1, §2

[8] = system: human foreskin fibroblast (Hs27) control cell line; assay: Cell viability assay (Cell Titer Blue), Examples 1, 3, 4; assay type: cell-based; conditions: DHA 25-250 μM 144 hours, GW9508 25-150 μM 72 hours, TAK-875 0-0.4 μM
Method: (§3) The human foreskin fibroblast (Hs27) and human melanoma (A2058, A375, SK-Mel 3) cell lines were purchased from ATCC (Manassas Va.). Cells were plated in 48-well plates at a concentration of 7.5×10^3cells/well in either DMEM (Hs27, A2058, A375; Invitrogen/GIBCO, Grand Island N.Y.) or McCoy's 5a medium (SK-Mel 3; Invitrogen/GIBCO) supplemented with 10% FBS (Invitrogen/GIBCO) and incubated at 37° C. in a humidified atmosphere with 5% CO2. After 24 hours the medium was replaced with either DMEM (HS27, A2058, A375) or McCoy's 5a Medium (SK-Mel 3) containing 1% heat […] (Invitrogen/GIBCO) and 0.1% FA-free BSA (Invitrogen/GIBCO) with various concentrations of DHA (Martek, Columbia Md.) prepared in 4 μL of ETOH. DHA was provided at 25-250 μM, and in the studies that follow GW9508 was provided at 25-150 μM and TAK-875 was provided at 0-0.4 μM. Controls were treated with 4 μL of ETOH. All concentrations were tested in quadruplicate.
(§4) Following 144 hours of DHA treatment cells were trypsinized (Trypsin-EDTA; Invitrogen/GIBCO) and viable cells were counted using an absorbance-based cell viability assay (Cell Titer Blue Cell Viability Assay; Promega, Madison Wis.). During the treatment, medium was changed at 72 hours for the DHA studies. Cell counts were reported as a percent of the control cell count.
(§5) Human foreskin fibroblast (Hs27) and human melanoma (A2058, A375, SK-Mel 3) cell lines (ATCC, Manassas Va.) were plated in 48-well plates at a concentration of 7.5×10^3cells/well in either DMEM (Hs27, A2058, A375; Invitrogen/GIBCC, Grand Island N.Y.) or McCoy's 5a Medium (SK-Mel 3; Invitrogen/GIBCO) supplemented with 10% FBS (Invitrogen/GIBCO) and incubated at 37° C. in a humidified atmosphere with 5% CO2. After 24 hours the medium was replaced with either DMEM (HS27, A2058, A375) or McCoy's 5a Medium (SK-Mel 3) containing 1% heat inactivated-FBS (Invitrogen/GIBCO) and 0.1% FA-free BSA (Invitrogen/GIBCO) with various concentrations of GW9508 (Cayman Chemical, Ann Arbor Mich.) prepared in 4 μL of ETOH, as described in Example 1. Controls were treated with 4 μL of ETOH. All concentrations were tested in quadruplicate.
(§6) Following 72 hours of treatment (GW9508) cells were trypsinized (Trypsin-EDTA; Invitrogen/GIBCO) and viable cells were counted using an absorbance-based cell viability assay (Cell Titer Blue Cell Viability Assay; Promega, Madison Wis.). Cell counts are reported as a percent of the control cell count.
(§7) Given the high expression of GPR40 and the negligible expression of GPR120 by the human melanoma cells evaluated, further studies were performed using the selective, potent and orally bioavailable GPR40 agonist, TAK-875 (Selleck Chemicals) consistent with the methods disclosed in Examples 1 and 3. In particular, such studies were performed to evaluate the ability of TAK-875 to exert an inhibitory effect on human melanoma cell lines in vitro relative to a control fibroblast cell line (Hs27) and the human breast cancer cell line MCF-7, as well as to further evaluate the mechanisms via which compounds such as omega-3 fatty acids exert their cellular effects on human melanoma.

[9] = system: A375 human melanoma cell line; assay: as above; assay type: cell-based; conditions: DHA 25-250 μM 144 hours, GW9508 25-150 μM 72 hours, TAK-875 0-0.4 μM
Method: as §3, §4, §5, §6, §7

[10] = system: SK-Mel3 human melanoma cell line; assay: as above; assay type: cell-based; conditions: DHA 25-250 μM 144 hours, GW9508 25-150 μM 72 hours, TAK-875 0-0.4 μM
Method: as §3, §4, §5, §6, §7

[11] = system: A2058 human melanoma cell line; assay: as above; assay type: cell-based; conditions: DHA 25-250 μM 144 hours, GW9508 25-150 μM 72 hours, TAK-875 0-0.4 μM
Method: as §3, §4, §5, §6, §7

[12] = system: breast cancer cell line MCF-7; assay: Cell viability assay (Cell Counting Kit-8), Example 5; assay type: cell-based, human; conditions: TAK-875, 6 days
Method: as §1, with “treatment. […]” for “treatment.”

[13] = system: breast cancer cell line MDA-MB-321; assay: as above; assay type: cell-based, human; conditions: TAK-875, 6 days
Method: as §1, with “treatment. […]” for “treatment.”

[14] = rat, in vivo; cited from earlier work
[15] = system: SK-NAS neuroblastoma cell line; assay: Cell viability assay (Cell Counting Kit-8), Example 5; assay type: cell-based, human; conditions: DHA 0-250 μM, TAK-875 0-0.4 μM, 3 and 6 days
Method: as §1, §2

[16] = system: IMR-32 neuroblastoma cell line; assay: as above; assay type: cell-based, human; conditions: DHA 0-250 μM, TAK-875 0-0.4 μM, 3 and 6 days
Method: as §1, §2

[17] = system: ShSY5Y neuroblastoma cell line; assay: as above; assay type: cell-based, human; conditions: DHA 0-250 μM, TAK-875 0-0.4 μM, 3 and 6 days
Method: as §1, §2

[18] = system: SK-NSH neuroblastoma cell line; assay: as above; assay type: cell-based, human; conditions: DHA 0-250 μM, TAK-875 0-0.4 μM, 3 and 6 days
Method: as §1, §2

[19] = system: A375 human melanoma cell line; assay: as above; assay type: cell-based; conditions: DHA 0-250 μM, TAK-875 0-0.4 μM, 6 days
Method: as §1
as §2, with “Following 72 hours (TAK-875) or 144 hours (DHA) of treatment, viable cells were quantified using an absorbance-based cell viability assay (Cell Counting Kit-8, Dojindo, Kumamoto, Japan).” left out

[20] = system: A2058 human melanoma cell line; assay: as above; assay type: cell-based; conditions: DHA 0-250 μM, TAK-875 0-0.4 μM, 6 days
Method: as §1
as §2, with “Following 72 hours (TAK-875) or 144 hours (DHA) of treatment, viable cells were quantified using an absorbance-based cell viability assay (Cell Counting Kit-8, Dojindo, Kumamoto, Japan).” left out

[21] = system: SK-Mel 3 human melanoma cell line; assay: as above; assay type: cell-based; conditions: DHA 0-250 μM, TAK-875 0-0.4 μM, 6 days
Method: as §1
as §2, with “Following 72 hours (TAK-875) or 144 hours (DHA) of treatment, viable cells were quantified using an absorbance-based cell viability assay (Cell Counting Kit-8, Dojindo, Kumamoto, Japan).” left out

[22] = system: human melanoma (A2058) xenograft; assay: Murine subcutaneous xenograft model of human melanoma, established tumors, oral TAK-875; assay type: in vivo, SCID mice; conditions: 100 mg/kg/day oral, N=7/group
Method: The subcutaneous murine xenograft model of human melanoma was created in 6-week old severe combined immunodeficiency (SCID) mice (Jackson Laboratories, Bar Harbor, Me.) by subcutaneous injection of 1×10^6 human melanoma cells (A2058) in […] of PBS (Invitrogen/GIBCC) into the left flank of each animal. Animal weights and tumor dimensions were measured every 48 hours. Tumor volume was calculated using the following formula: volume=length×width^2×0.52. In accordance with the methods disclosed in Example 2, a murine subcutaneous xenograft model of human melanoma was prepared and used to test the effect of once daily oral TAK-875 on the growth of established melanoma tumors in vivo. Animals were treated daily for 14 days with either a control solution or an oral solution of TAK-875 (100 mg/kg/day) from the time their tumor volume reached 200 mm^3. […] Most importantly the change in tumor volume from start of drug treatment to completion of 14 days of treatment, was 77% lower in the TAK-875 group compared to placebo (P=0.04, FIG. 3G).

For `Cc1cc(OCCCS(C)(=O)=O)cc(C)c1-c1cccc(COc2ccc3c(c2)OC[C@H]3CC(=O)O)c1` [TAK-875], which safety and tolerability [1] is on record?
Its safety and tolerability is “safe and well tolerated”.

What about the effect on growth [2] of the same compound?
Its effect on growth is “did not influence the growth”.

And the cell viability [3]?
The cell viability was “pronounced decrease”.

What about the cell viability [4] of the same compound?
Its cell viability is “dramatic decrease in cell viability”.

What about the cell viability [5] of the same compound?
Its cell viability is “pronounced effect”.

What about the “cell viability / toxicity in control cell line” value [6] of the same compound?
The value was “Little to no effect; also recorded: little effect; also recorded: Toxicity was observed in the control Hs27 cell line at high concentrations”.

And the cell viability [7]?
Its cell viability is “minimal change in viability”.

And the “effect on growth / toxicity in control fibroblasts” value [8]?
Its value is “did not influence the growth”.

What about the “effect on growth / viable cell count (percent of control)” value [9] of the same compound?
Its value is “robust and selective cytotoxic effect”.

And the “effect on growth / viable cell count (percent of control)” value [10]?
Its value is “robust and selective cytotoxic effect”.

What about the “effect on growth / viable cell count (percent of control)” value [11] of the same compound?
The value was “robust and selective cytotoxic effect”.

And the cell viability [12]?
Its cell viability is “decrease in cell viability was observed at high concentrations”.

And the cell viability [13]?
The cell viability was “decrease in cell viability was observed at high concentrations”.

And the safety and tolerability [14]?
The safety and tolerability was “safe and well tolerated”.

What about the cell viability [15] of the same compound?
The cell viability was “significantly attenuated viability”.

What about the cell viability [16] of the same compound?
Its cell viability is “significantly attenuated viability”.

What about the cell viability [17] of the same compound?
The cell viability was “significantly attenuated viability”.

And the cell viability [18]?
Its cell viability is “significantly attenuated viability”.

What about the cell viability [19] of the same compound?
The cell viability was “significant decrease in cell viability”.

What about the cell viability [20] of the same compound?
The cell viability was “significant decrease in cell viability”.

And the cell viability [21]?
Its cell viability is “significant decrease in cell viability”.

And the “tumors smaller in volume versus placebo” value ([22]; 14 days, from tumor volume 200 mm^3, P=0.03)?
Its value is 62%.

And the “tumors smaller in weight versus placebo” value ([22]; 14 days, from tumor volume 200 mm^3, P=0.07)?
The value was 46%.

And the “animal weights versus placebo” value ([22]; 14 days)?
The value was “not significantly different”.

What about the “change in tumor volume from start of drug treatment to completion of 14 days, lower compared to placebo” value ([22]; P=0.04) of the same compound?
The value was 77%.

What does the source list for `CC/C=C\C/C=C\C/C=C\C/C=C\C/C=C\C/C=C\CCC(=O)O` [DHA, docosahexaenoic acid]?
cell viability / toxicity in control cell line [6]: Little to no effect; also recorded: little effect; also recorded: Toxicity was observed in the control Hs27 cell line at high concentrations; effect on growth / toxicity in control fibroblasts [8]: no growth inhibition

What does the source list for `O=C(O)CCc1ccc(NCc2cccc(Oc3ccccc3)c2)cc1` [GW9508]?
effect on growth / toxicity in control fibroblasts [8]: not toxic; effect on growth / viable cell count (percent of control) [9]: profound inhibitory effect on the growth; effect on growth / viable cell count (percent of control) [10]: profound inhibitory effect on the growth; effect on growth / viable cell count (percent of control) [11]: profound inhibitory effect on the growth

— patent US9763905B2, “Therapeutic target for the treatment of cancers and related therapies and methods” (CHILDREN'S MEDICAL CENTER CORPORATION, priority 2013, dated 2017)
